Measured values: ChEMBL document CHEMBL5230116, “Recent developments of small molecules with anti-inflammatory activities for the treatment of acute lung injury” (Eur J Med Chem, 2020)

How the values were obtained:
Neutrophil collagenase = Neutrophil collagenase (Homo sapiens, UniProt P22894); test: Inhibition of recombinant human MMP-8 using QF24 as substrate incubated for 3 hrs by spectrofluorometer assay
[1] = biological target: T1, 72 kDa type IV collagenase (Homo sapiens, UniProt P08253); test: Inhibition of recombinant human MMP-2 using QF24 as substrate incubated for 3 hrs by spectrofluorometer assay
[2] = Inhibition of LPS induced IL-6 expression in ICR mouse peritoneal macrophage at 10 uM incubated for 30 mins followed by LPS stimulation measured after 24 hrs by ELISA assay relative to control; assay type: functional
[3] = Inhibition of LPS induced TNF-alpha expression in ICR mouse peritoneal macrophage at 10 uM incubated for 30 mins followed by LPS stimulation measured after 24 hrs by ELISA assay relative to control; assay type: functional
[4] = Inhibition of TNF-alpha expression in LPS stimulated mouse RAW264.7 cells incubated for 1 hr by ELISA assay; assay type: functional, cell-based; conditions: RAW264.7, 1 h
RAW264.7 = test: Inhibition of NO production in LPS stimulated mouse RAW264.7 cells incubated for 1 hr by Griess reagent based assay; assay type: functional, cell-based; conditions: RAW264.7, 1 h
[5] = Inhibition of IL-6 expression in LPS stimulated mouse RAW264.7 cells incubated for 1 hr by ELISA assay; assay type: functional, cell-based; conditions: RAW264.7, 1 h
[6] = biological target: T1, 72 kDa type IV collagenase; test: Inhibition of MMP-2 (unknown origin)
[7] = biological target: Matrix metalloproteinase-9 (Homo sapiens, UniProt P14780); test: Inhibition of MMP-9 (unknown origin)
[8] = Oral bioavailability in rat at 3 mg/kg; assay type: ADME, organism-based; conditions: in vivo
[9] = Half life in rat at 3 mg/kg, po; assay type: ADME, organism-based; conditions: in vivo

T1 sequence (P08253 whole entry): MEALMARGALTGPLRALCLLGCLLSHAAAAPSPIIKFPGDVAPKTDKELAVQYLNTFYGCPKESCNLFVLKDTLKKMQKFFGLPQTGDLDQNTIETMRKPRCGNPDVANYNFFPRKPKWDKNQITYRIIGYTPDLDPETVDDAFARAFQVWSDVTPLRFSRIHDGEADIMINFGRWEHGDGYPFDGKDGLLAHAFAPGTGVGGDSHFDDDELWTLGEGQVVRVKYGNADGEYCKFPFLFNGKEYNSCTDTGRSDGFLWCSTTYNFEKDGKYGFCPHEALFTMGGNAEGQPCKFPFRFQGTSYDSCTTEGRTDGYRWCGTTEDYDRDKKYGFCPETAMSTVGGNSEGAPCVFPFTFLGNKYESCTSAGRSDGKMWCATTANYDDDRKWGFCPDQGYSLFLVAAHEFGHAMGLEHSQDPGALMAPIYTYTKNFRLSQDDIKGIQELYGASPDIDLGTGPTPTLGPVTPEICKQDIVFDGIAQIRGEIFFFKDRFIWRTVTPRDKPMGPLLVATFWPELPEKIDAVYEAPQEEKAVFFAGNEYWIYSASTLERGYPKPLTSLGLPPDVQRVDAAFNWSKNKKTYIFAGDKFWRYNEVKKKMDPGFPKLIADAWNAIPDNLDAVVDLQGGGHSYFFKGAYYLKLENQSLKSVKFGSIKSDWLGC
Chain of Neutrophil collagenase (P22894 whole entry): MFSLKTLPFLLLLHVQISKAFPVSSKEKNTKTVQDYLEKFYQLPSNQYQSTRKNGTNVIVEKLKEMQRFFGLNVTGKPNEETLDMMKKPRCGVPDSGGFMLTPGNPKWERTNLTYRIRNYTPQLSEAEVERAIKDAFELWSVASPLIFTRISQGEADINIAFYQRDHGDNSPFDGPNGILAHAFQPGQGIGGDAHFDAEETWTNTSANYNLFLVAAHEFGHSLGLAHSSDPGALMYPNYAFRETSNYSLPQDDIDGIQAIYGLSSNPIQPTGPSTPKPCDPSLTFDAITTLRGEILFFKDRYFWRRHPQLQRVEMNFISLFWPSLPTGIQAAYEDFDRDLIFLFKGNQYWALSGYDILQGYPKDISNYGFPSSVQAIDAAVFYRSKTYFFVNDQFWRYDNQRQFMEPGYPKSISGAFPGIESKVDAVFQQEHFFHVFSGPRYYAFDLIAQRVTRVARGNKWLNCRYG
Chain of Matrix metalloproteinase-9 (P14780 whole entry): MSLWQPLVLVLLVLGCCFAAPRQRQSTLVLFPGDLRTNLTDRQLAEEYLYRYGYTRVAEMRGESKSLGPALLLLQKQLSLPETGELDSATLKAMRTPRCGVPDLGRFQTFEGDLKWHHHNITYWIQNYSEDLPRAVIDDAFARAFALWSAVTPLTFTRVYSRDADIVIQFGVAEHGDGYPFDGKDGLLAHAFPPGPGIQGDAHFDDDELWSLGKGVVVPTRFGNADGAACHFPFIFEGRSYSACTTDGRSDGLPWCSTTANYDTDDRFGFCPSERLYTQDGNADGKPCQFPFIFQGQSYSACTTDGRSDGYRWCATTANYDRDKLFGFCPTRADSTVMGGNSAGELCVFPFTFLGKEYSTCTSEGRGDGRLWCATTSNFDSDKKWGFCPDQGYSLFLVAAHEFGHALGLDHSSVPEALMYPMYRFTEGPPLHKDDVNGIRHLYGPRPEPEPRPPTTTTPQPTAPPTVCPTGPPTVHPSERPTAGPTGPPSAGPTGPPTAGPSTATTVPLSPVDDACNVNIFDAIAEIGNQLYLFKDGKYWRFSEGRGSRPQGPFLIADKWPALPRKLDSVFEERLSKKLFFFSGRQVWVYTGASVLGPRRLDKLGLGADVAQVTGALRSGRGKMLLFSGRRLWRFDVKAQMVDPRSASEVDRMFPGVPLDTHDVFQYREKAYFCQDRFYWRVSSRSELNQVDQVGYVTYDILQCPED

## O=C(CCN1CCN(Cc2ccccc2)CC1)Nc1nc(-c2ccccc2)cs1
Neutrophil collagenase
  IC50: 11.9 µM
[1]
  IC50: 10.2 µM

## COc1cc(/C=C2\Cc3ccc(O)cc3C2=O)ccc1O
[2]
  inhibition at 10 µM: 69.3%
[3]
  inhibition at 10 µM: 83.7%

## CCCc1nn(C)c2c(NCCCN3CCOCC3)nc(/C=C/c3cc(OC)c(OC)c(OC)c3)nc12
[4]
  IC50: 5.63 µM
RAW264.7
  IC50: 2.64 µM
[5]
  IC50: 4.38 µM

## CCCOc1cccc2c1C(=O)/C(=C/c1ccc(O)c(OC)c1)C2
[2]
  inhibition at 10 µM: 84.9%
[3]
  inhibition at 10 µM: 72%

## O=C(CN1CCN(c2ccccc2)CC1)Nc1nc(-c2ccc(F)cc2)cs1
Neutrophil collagenase
  IC50: 2.34 µM
[1]
  IC50: 4.22 µM

## COc1cc(/C=C2\Cc3cc(OC)c(OC)cc3C2=O)ccc1O
[2]
  inhibition at 10 µM: 81.4%
[3]
  inhibition at 10 µM: 79.3%

## O=C1NC(=O)C(O)(CC(=O)c2ccc(NS(=O)(=O)c3ccc(C(F)(F)F)cc3)cc2)C(=O)N1
[6]
  IC50: 0.00235 µM
[7]
  IC50: 0.00824 µM

## Cc1coc2c1C(=O)c1c3c-2ccc2c3c(n1Cc1ccccc1)C(=O)CC2(C)C
[8]
  bioavailability: 30.2%
[9]
  half-life: 4.05 h

## Cc1coc2c1C(=O)C(=O)c1c-2ccc2c1CCCC2(C)C [TANSHINONE IIA]
[8]
  bioavailability: < 3.5%
[9]
  half-life: 0.34 h
